# Experimental data reported in patent publication US20050014816A1, “Thiophene amino acid derivatives, process for preparing them and pharmaceutical compositions containing them” (Pfizer Inc, priority 2003, published 2005).
# Key:
# MMP-13 = MMP-13 (Homo sapiens, UniProt P45452); assay: MMP-12 inhibition test adapted to MMP-13; format: biochemical; conditions: test for MMP-12 adapted to MMP-13
# Protocol: The reaction starts with the sequential addition of 41 μl of FP-1 substrate (final concentration of 10 μM) to a buffer solution of 50 mM of Tris-HCl and 10 mM of CaCl2, and containing 5 mM of hydroxamic acid and 5 μl of the enzyme diluted in a 0.005% Brij-35 buffer solution. The microplates are incubated for 20 minutes at room temperature. The compounds of the invention are tested at concentrations ranging from 0.3 to 30 μM. The measurement of the amount of proteolysis of the peptide substrate is monitored by means of a measurement of absorbance at 405 nm using a microplate spectrophotometer, at room temperature. The IC50 values are calculated from curves in which the percentage of the catalytic activity relative to the control is represented on the x-axis and the inhibitor concentration is represented on the y-axis.
# The test described above for the inhibition of MMP-12 is adapted and used to determine the capacity of the compounds of formula (I) to inhibit the metalloproteases MMP-1, MMP-2, MMP-3, MMP-7, MMP-9, MMP-13 and MMP-14.
# MMP-12 = MMP-12 (Homo sapiens, UniProt P39900); assay: in vitro inhibitory activity on MMP-12 (proteolysis of FP-1 peptide substrate); format: biochemical; conditions: FP-1 substrate 10 μM, 20 minutes at room temperature
# Sequence of MMP-12 (P39900 106-470): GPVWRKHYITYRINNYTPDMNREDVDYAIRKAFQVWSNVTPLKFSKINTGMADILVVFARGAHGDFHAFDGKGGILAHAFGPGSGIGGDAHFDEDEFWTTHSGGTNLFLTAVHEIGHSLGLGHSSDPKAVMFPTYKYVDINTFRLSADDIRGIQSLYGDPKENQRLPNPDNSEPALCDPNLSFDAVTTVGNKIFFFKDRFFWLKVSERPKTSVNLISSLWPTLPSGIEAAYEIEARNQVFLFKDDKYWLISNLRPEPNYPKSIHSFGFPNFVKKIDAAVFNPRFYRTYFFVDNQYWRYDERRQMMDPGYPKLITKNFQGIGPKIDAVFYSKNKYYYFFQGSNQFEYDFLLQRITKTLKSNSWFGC
# Protocol: in vitro Evaluation of the Inhibitory Activity of the Compounds of the Invention on MMP-12:
# The inhibitory activity of the compounds of formula (I) on metalloprotease-12 is evaluated by testing the capacity of the compounds of the invention to inhibit the proteolysis of a peptide that is an MMP-12 substrate.
# The substrate peptide used (fluorigenic peptide-1: FP-1) in the test has the following sequence: Mca-Pro-Leu-Gly-Leu-Dap(Dnp)-Ala-Arg-NH2.
# The inhibitory activity of a compound of formula (I) is expressed as the IC50 value, which represents the concentration of inhibitor for which a 50% inhibition of the metalloprotease is observed.
# The reaction starts with the sequential addition of 41 μl of FP-1 substrate (final concentration of 10 μM) to a buffer solution of 50 mM of Tris-HCl and 10 mM of CaCl2, and containing 5 mM of hydroxamic acid and 5 μl of the enzyme diluted in a 0.005% Brij-35 buffer solution. The microplates are incubated for 20 minutes at room temperature. The compounds of the invention are tested at concentrations ranging from 0.3 to 30 μM. The measurement of the amount of proteolysis of the peptide substrate is monitored by means of a measurement of absorbance at 405 nm using a microplate spectrophotometer, at room temperature. The IC50 values are calculated from curves in which the percentage of the catalytic activity relative to the control is represented on the […] and the inhibitor concentration is represented on the y-axis.
Compound,IC50 (MMP-13) [µM],IC50 (MMP-12) [µM]
"O=C(O)CC(NC(=O)c1cc(-c2ccc(OC(F)(F)F)cc2)cs1)c1ccccc1 (racemic) [Example 6, {1[(4-Trifluoromethoxyphenyl)thien-2-yl]carboxamido}(phenyl)-propanoic acid]",3.6,0.42
"O=C(N[C@@H](C(=O)O)c1ccccc1)c1cc(-c2ccc(OC(F)(F)F)cc2)cs1 [Example 4, (2R)-{[4-(4-Trifluoromethoxyphenyl)thien-2-yl]carboxamido}-(phenyl)acetic acid]",5.6,0.47
O=C(N[C@H](C(=O)O)c1ccccc1)c1cc(-c2ccc(OC(F)(F)F)cc2)cs1 [Example 2],4.5,0.38
"O=C(N[C@H](Cc1ccccc1)C(=O)O)c1cc(-c2ccc(OC(F)(F)F)cc2)cs1 [Example 8, (2R)-{[4-(4-Trifluoromethoxyphenyl)thien-2-yl]carboxamido}(phenyl)-propanoic acid]",2.2,0.18

# Further lines, results first:
IC50 (MMP-13) [µM],IC50 (MMP-12) [µM],Compound
6.5,0.54,"O=C(N[C@H](C(=O)O)c1ccccc1)c1cc(-c2ccc(C3CCCCC3)cc2)cs1 [Example 16, (2S)-{[4-(4-cyclohexylphenyl)thien-2-yl]carboxamido}(phenyl)acetic acid]"
0.96,0.077,NC(=O)C[C@@H](NC(=O)c1cc(-c2ccc(OC(F)(F)F)cc2)cs1)c1ccccc1 [Example 9]
0.12,0.04,"CC(=O)c1ccc(-c2ccc(-c3csc(C(=O)N[C@H](C(=O)O)c4ccccc4)c3)cc2)cc1 [Example 18, (2S)4-[({4-[4-(4-Acetylphenyl)phenyl]thien-2-yl}carbonyl)amino]-(phenyl)acetic acid]"
8.3,0.53,"O=C(O)C[C@H](Cc1ccccc1)NC(=O)c1cc(-c2ccc(OC(F)(F)F)cc2)cs1 [Example 12, (3S)-3-{[4-(4-Trifluoromethoxyphenyl)thien-2-yl]carboxamido)-4-phenylbutanoic acid]"
0.069,0.028,CC(=O)c1ccc(-c2ccc(-c3csc(C(=O)N[C@H](CC(=O)O)c4ccccc4)c3)cc2)cc1 [Example 20]
